Source: PubChem BioAssay (NCI)
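Tested at 5 concentrations; 48 h exposure; 96-well plates; endpoints linearly interpolated, else capped at highest concentration. The concentration for full growth arrest is given as TGI.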

Tests used:
Test in all cases: NCI anticancer screen, dose series, 48 h
[1] = tested on: 786-0 renal
[2] = tested on: ACHN renal
[3] = tested on: COLO 205 colon
[4] = tested on: EKVX NSCLC
[5] = tested on: HCC-2998 colon
[6] = tested on: HCT-15 colon
[7] = tested on: HS 578T breast
[8] = tested on: MALME-3M melanoma
[9] = tested on: MDA-MB-231 breast
[10] = tested on: OVCAR-3 ovarian
[11] = tested on: SF-539 CNS
[12] = tested on: SK-MEL-28 melanoma
[13] = tested on: U251 CNS
[14] = tested on: HOP-92 NSCLC

SMILES	TGI [1] [µM]	TGI [2] [µM]	TGI [3] [µM]	TGI [4] [µM]	TGI [5] [µM]	TGI [6] [µM]	TGI [7] [µM]	TGI [8] [µM]	TGI [9] [µM]	TGI [10] [µM]	TGI [11] [µM]	TGI [12] [µM]	TGI [13] [µM]	TGI [14] [µM]
c1ccc2[nH]c3[nH]c4[nH]c5ccccc5[nH]c4[nH]c3[nH]c2c1	> 100	> 100	> 100	> 100	> 100	> 100	> 100	> 100	> 100	> 100	> 100	> 100	> 100	
CN(C)c1ccc(/C=C2\N=C(N/N=C/c3ccccc3)NC2=O)cc1	> 100	> 100	> 100	> 100	> 100	> 100	> 100	> 100	> 100	> 100		> 100	> 100	79.1
CCOc1ccc(N/C(=C(/C(Cl)=C(/Cl)NCCO)[N+](=O)[O-])n2nnc3ccccc32)cc1	81.7	48.4	29.7	> 100	> 100	43.3	38.8	32.4	63.8	35.2	93	37.7	58.7	
Cc1[nH]n(-c2nc3c(c(=O)[nH]2)CCC3)c(=O)c1CCO	> 100	> 100	> 100	> 100	> 100	> 100	> 100	> 100	> 100	> 100	> 100	> 100	> 100	
COc1ccc(C2CC(=O)Oc3ccccc3O2)cc1 (stereo not given)	> 100	> 100	> 100	> 100	> 100	> 100	> 100		> 100	> 100	> 100	> 100	> 100	
CCCC(=O)N/S(=N/S(=O)(=O)c1ccc(Cl)cc1)C(Cl)(Cl)Cl (stereo not given)	> 100	> 100		> 100	> 100	> 100	> 100	> 100	> 100	> 100	> 100	> 100	> 100	
COC(=O)/C(C#N)=C1\NC(=O)CC(c2ccccc2)C1C#N (stereo not given)	> 100	> 100	> 100	> 100	> 100	> 100	> 100	> 100	> 100	> 100	> 100	> 100		> 100
CC1(C)OC(=O)C(C)(C)OC1=O	> 100	> 100	> 100	> 100		> 100	> 100	> 100	> 100	> 100	> 100	> 100	> 100	> 100
COC1C=C(NCC2(CO)CCC2)NC(N)=N1 (stereo not given)	> 100		> 100	> 100	> 100	> 100	> 100	> 100	> 100	> 100		> 100	> 100	> 100
C[C@]12CC(c3ccccc3O1)C(C#N)C(=O)N2 (stereo not given in full)	> 100	> 100	> 100	> 100	> 100	> 100	> 100	> 100	> 100	> 100		> 100	> 100	> 100
CC(=O)O[C@H]1C(=O)[C@@]2(C)[C@H]([C@H](OC(=O)c3ccc([N+](=O)[O-])cc3)[C@]3(O)C[C@H](OC(=O)[C@H](O)[C@@H](NC(=O)c4ccccc4)c4ccccc4)C(C)=C1C3(C)C)[C@]1(OC(C)=O)CO[C@@H]1C[C@@H]2O	> 25	> 25	> 25	> 25	> 25	> 25	> 25	> 25	> 25		> 25	> 25	> 25	> 25
CCCCSC1=N/C(=C\c2ccco2)C(=O)N1	> 100	> 100	> 100	> 100	> 100	> 100	88.3	> 100	> 100	> 100		> 100	> 100	
CN1CC2=C(NC(=S)NC2c2ccc(Cl)cc2)/C(=C/c2ccc(Cl)cc2)C1 (stereo not given)	52.3	57.9	33.3	68.8	34	37.5	40.3	36.8	39.8	29.3	62.9	33.9	33.3	
CC1(C)[C@@H]2C[C@H]1C(Cc1ccc(C[C@H]3c4cc(-c5ccccn5)ncc4[C@H]4C[C@@H]3C4(C)C)cc1)c1cc(-c3ccccn3)ncc12 (stereo not given in full)	14.7	> 100	13.7	15	88.2	> 100	> 100	76.6	> 100	18.8	7.13	79.7	19.7	
CC1(C)C=C(/C=N/Nc2ccc(Br)cc2)C(C#N)=C(O)C1(C#N)C#N	> 100	> 100	36.8	> 100	> 100		> 100	> 100	> 100	> 100	> 100	> 100		65.7
CCOC(=O)c1nnsc1NC(=O)Nc1ccc(Cl)cc1	42.4	> 100	> 100	> 100	> 100	> 100	> 100	> 100	52.7	> 100		> 100	> 100	
CC1=NN2C(=O)CC(=O)N=C2S1	> 100	> 100	> 100	> 100		> 100	> 100	> 100	> 100	> 100	> 100	> 100	> 100	> 100
